# Test results published in patent US8178506B2, “Oligomeric compounds and compositions for use in modulation of small non-coding RNAs” (Regulus Therapeutics Inc., priority 2003, dated 2012).
# Entries after “also recorded” stand apart in the source; their conditions may differ. In the oligonucleotide strings, read from the 5' end, every base follows the letter of its sugar. An asterisk marks phosphorothioate; unmarked linkages are phosphodiester. Other units and linkages are bracketed, terminal groups are in braces. A string of capitals states the bases alone. e = 2'-O-(2-methoxyethyl) (MOE); [5mC] = 5-methylcytosine; d = 2'-deoxy (DNA)
# Columns and labels:
# [1] = system: DIO mice; assay: Diet-induced obesity (DIO) mice; format: in vivo; details: 25 mg/kg s.c. twice weekly
# Description: As described, supra, the C57BL/6 mouse strain is reported to be susceptible to hyperlipidemia-induced atherosclerotic plaque formation, and when these mice are fed a high-fat diet, they develop diet-induced obesity (DIO). Accordingly, the DIO mouse model is useful for the investigation of obesity and development of agents designed to treat these conditions. In one embodiment of the present invention, oligomeric compounds targeting miRNAs were tested in the DIO model. Normal C57/BL6 male mice were fed a high fat diet (40% fat, 41% carbohydrate, 18% protein) for 12 weeks before the study began. DIO mice were then randomized by weight and insulin values. Initial body fat composition was determined by Dual X-ray Absorptiometry (DEXA) Scan. DIO mice were then subcutaneously injected with oligomeric compounds of the invention at a dose of 25 mg/kg, twice weekly. DIO mice were treated with oligomeric compounds ISIS Numbers 327901 and 340927 targeting mir-143, ISIS Numbers 327892 and 340926 targeting mir-131/mir-9, ISIS Numbers 327878 and ISIS Number 345349 targeting mir-203, and ISIS Numbers 327889 and 340925, targeting mir-23b. […] DEXA scans were also performed at weeks 0, 3 and 5 after treatment with the oligomeric compounds to assess the fat mass to lean mass ratio. The effects of target inhibition on levels of plasma glucose and insulin, liver transaminases, cholesterol and triglycerides, were also assessed weekly by tail bleed, and after the treatment period, mice were sacrificed and liver and kidney heart, as well as white adipose tissue (WAT) tissues collected. The mRNA expression levels of the Glut4, aP2, HSL and PPARγ marker genes are also assessed. […] Furthermore, some improvement in body composition (a reduction in body weight and fat mass) was observed.
# [2] = system: mir-23b miRNA; assay: Northern blot of mir-23b in kidney of ob/ob mice; format: in vivo, mouse; details: twice weekly at 25 mg/kg, saline = 100%
# Description: In addition, Northern blot analyses were performed to quantitate the expression of mir-23b in kidney samples of ob/ob mice treated with oligomeric compounds of the present invention. To detect the mir-23b target, a target-specific DNA oligonucleotide probe with the sequence […] (SEQ ID NO: 307) was synthesized by IDT (Coralville, Iowa). The oligo probes were 5′ end-labeled with T4 polynucleotide kinase with (γ-^32P) ATP (Promega). The mir-23b specific DNA oligonucleotide probe was used to detect expression levels of the mir-23b miRNA in ob/ob mice treated (twice weekly at 25 mg/kg) with ISIS Numbers 327889, the uniform 2′-MOE oligomeric compound, or ISIS Number 340925, the 5-10-8 gapmer compound, both targeted to mir-23b, versus saline treated animals or animals treated with a control oligomeric compound, ISIS Number 116847 ([…]; SEQ ID NO: 844), a uniform 5-10-52′-MOE gapmer targeting an unrelated gene, PTEN. Expression levels were normalized against the U6 RNA and the expression levels of saline treated animals were set at 100%. […] In kidney samples from mice treated with the gapmer oligomeric compound targeting mir-23b, ISIS Number 340925, a 41% reduction in in vivo expression levels of the mir-23b miRNA was observed.
# [3] = system: mir-23b miRNA; assay: pGL3-mir-23b sensor luciferase assay in HeLa cells; format: cell-based, human; details: HeLa, 1.3-, 5- or 20 nM
# From the text: In order to assess the ability of miRNAs to bind predicted miRNA binding sites and regulate the expression of the luciferase reporter, in some embodiments, expression systems based on the pGL3-Control (Promega Corp., Madison Wis.) reporter vector and comprising either a mir-15a, mir-21, or a mir-23b miRNA binding site were developed and used in transient transfections of HeLa cells to determine whether the endogenous mir-15a, mir-21, or mir-23b miRNAs, respectively, could repress luciferase reporter gene expression.
# The pGL3-mir-23b sensor plasmid was created by cloning the sequence ([…]; SEQ ID NO: 307), representing a sequence complementary to the mir-23b miRNA, into the Xba site of the pGL3-Control plasmid, placing the potential miRNA-binding site in the 3′UTR of the luciferase reporter. This reporter plasmid was used to transfect HeLa cells and it was observed that the endogenous mir-23b miRNA was able to inhibit luciferase expression from the pGL3-mir-23b sensor plasmid. Thus, to further evaluate the ability of the mir-23b miRNA to bind this target site encoded by the pGL3-mir-23b sensor plasmid, and to assess the ability of oligomeric compounds to interfere with mir-23b-mediated silencing, pGL3-mir-23b sensor-expressing HeLa cells were treated with varying concentrations (1.3-, 5- or 20 nM) of the following oligomeric compounds: ISIS Number 327889 (SEQ ID NO: 307), a phosphorothioate uniform 2′-MOE oligomeric compound, and ISIS Number 340925 (SEQ ID NO: 307), a 2′-MOE 5-10-8 gapmer oligomeric compound, both targeting mir-23b. The uniform 2′-MOE phosphorothioate oligomeric compound ISIS Number 327924 (SEQ ID NO: 342) targeting an unrelated miRNA (mir-129-2) was used as a negative control. The data are the average of three trials, and are presented in Table 43 as relative luciferase activity (normalized to pRL-CMV luciferase plasmid only, not treated with oligomeric compound).
# [4] = system: preadipocytes / differentiating adipocytes; assay: Adipocyte differentiation assay, markers taken together; format: cell-based, human; details: preadipocytes, 250 nM, day nine post-transfection, relative to ISIS-29848
# [5] = system: mir-24-2 pri-miRNA; assay: mir-24-2 pri-miRNA expression in HeLa cells; format: cell-based, human; details: 100 nM
# Description: The expression levels of mir-24-2, let-7i , and let-7d were assessed in HeLa or T-24 cells treated with various uniform 2′-MOE oligomeric compounds targeting mature miRNAs. For example, using the transfection methods previously described, HeLa cells were treated with 100 nM of the oligomeric compound ISIS Number 327945 (SEQ ID NO: 363) targeting the mir-24-2 mature miRNA. Total RNA was isolated and expression levels of the mir-24-2 pri-miRNA were analyzed by real-time quantitative RT-PCR using a primer/probe set specific for the mir-24-2 pri-miRNA molecule [forward primer=ISIS 359358 (CCCTGGGCTCTGCCT; herein incorporated as SEQ ID NO.: 908), reverse primer-ISIS 359359 ([…]; herein incorporated as SEQ ID NO.: 909), and probe=ISIS 359360 (CGTGCCTACTGAGC; herein incorporated as SEQ ID NO.: 910)].
# [6] = system: TLR4; assay: TLR4 mRNA in primary murine macrophages; format: cell-based, mouse; details: LPS-stimulated and LPS- and IFN-gamma-stimulated macrophages
# Description: Following the 24 hour treatment with LPS, the cells were lysed and RNA was isolated using the RNEASY 96™ kit, as described herein. mRNA expression was quantitated by real-time PCR, performed as described herein, using primer and probe sets to amplify and quantitate TLR4, IL-12 and IL-6 mRNA expression levels. Primers and probe for TLR4, designed using GenBank Accession number NM_021297.1, were: forward primer, 5′-[…]-3′ (SEQ ID NO: 2172), reverse primer, 5′-[…]-3′ (SEQ ID NO: 2173), probe 5′-FAM-[…]-TAMRA-3′ (SEQ ID NO: 2174). Primers and probe for IL-12, designed using GenBank Accession number M86671.1, were: forward primer, 5′-[…]-3′ (SEQ ID NO: 2175), reverse primer, 5′-[…]-3′ (SEQ ID NO: 2176), probe 5′-FAM-[…]-TAMRA-3′ (SEQ ID NO: 2177). Primers and probe for IL-6, designed using GenBank Accession number X54542.1, were: forward primer, 5′-[…]-3′ (SEQ ID NO: 2178), reverse primer, 5′-[…]-3′ (SEQ ID NO: 2179), probe 5′-FAM-[…]-TAMRA-3′ (SEQ ID NO: 2180). The amount of total RNA in each sample was determined using a Ribogreen Assay (Molecular Probes, Eugene, Oreg.), and expression levels of TLR4, IL-12 and IL-6 were normalized to total RNA.
# TLR4 is the primary macrophage receptor for LPS. […]
# [7] = system: IL-12 mRNA; assay: IL-12 mRNA in LPS-activated primary murine macrophages; format: cell-based, mouse; details: LPS-stimulated primary murine macrophages
# [8] = system: IL-6 mRNA; assay: IL-6 mRNA in LPS-activated primary murine macrophages; format: cell-based, mouse; details: IFN-gamma-stimulated and unstimulated cells, 75-600 nM
# Description: To investigate the role of miRNAs in the immune response, oligomeric compounds of the present invention targeting miRNAs were tested for their effects upon lipopolysaccharide (LPS)-activated primary murine macrophages. Macrophages participate in the immune response, for example, in the recognition and phagocytosis of microorganisms, including bacteria. Interferon-gamma (IFN-gamma) released by helper T cells is one type of signal required for macrophage activation, and LPS can serve as an additional stimulus. LPS is a component of the gram-negative bacterial cell wall and acts as an agonist for toll-like receptor 4 (TLR4), the primary LPS receptor expressed by macrophages. The proinflammatory cytokines interleukin-12 (IL-12) and interleukin-6 (IL-6) are induced by LPS treatment of macrophages, thus the expression of the mRNAs encoding these cytokines was used to evaluate the response of macrophages to LPS following treatment with oligomeric compounds targeting miRNAs.
# Macrophages were isolated as follows. Female C57B1/6 mice (Charles River Laboratories, Wilmington, Mass.) were injected intraperitoneally with 1 ml 3% thioglycollate broth (Sigma-Aldrich, St. Louis, Mo.), and peritoneal macrophage cells were isolated by peritoneal lavage 4 days later. The cells were plated in 96-well plates at 40,000 cells/well for one hour in serum-free RPMI adjusted to contain 10 mM HEPES (Invitrogen Life Technologies, Carlsbad, Calif.), allowed to adhere, then non-adherent cells were washed away and the media was replaced with RPMI containing 10 mM HEPES, 10% FBS and penicillin/streptomycin (“complete” RPMI; Invitrogen Life Technologies, Carlsbad, Calif.).
# Oligomeric compounds were introduced into the cells using the non-liposomal transfection reagent FuGENE 6 Transfection Reagent (Roche Diagnostics Corp., Indianapolis, Ind.). Oligomeric compound was mixed with FuGENE 6 in 1 mL of serum-free RPMI to achieve a concentration of 10 μL FuGENE per 1000 nM oligomeric compound. The oligomeric compound/FuGENE complex was allowed to form at room temperature for 20 minutes. This mixture was diluted to the desired concentration of oligomeric compound by the addition of the appropriate volume of complete RPMI. The final ratio of FuGENE 6 to oligomeric compound was 1 μL of FuGENE 6 per 100 nM oligomeric compound. A volume of 100 μL of oligomeric compound/FuGENE/RPMI was added to each well of the 96-well plate in which the macrophages were cultured. Each oligomeric compound treatment was repeated in triplicate.
# Following oligomeric compound treatment, cells were stimultated with LPS. Cells were cultured in the presence of the transfection complex for approximately 24 to 28 hours at 37° C. and 5% CO2, after which the medium containing the transfection complex was removed from the cells, and complete RPMI containing 100 ng/mL LPS (Sigma-Aldrich Corp., St. Louis, Mo.) was added to the cells for a period of approximately 24 hours. Control samples included (1) cells receiving no oligomeric compound, stimulated with LPS and (2) cells receiving neither oligomeric compound nor LPS treatment.
# In another embodiment, following oligomeric compound treatment, cells were first activated by IFN-gamma, to amplify the response to LPS. Cells were cultured in the presence of the transfection complex for approximately 24 hours at 37° C. and 5% CO2, at which point the medium containing the transfection complex was removed from the cells, and complete RPMI containing 100 ng/mL recombinant mouse IFN-gamma (R&D Systems, Minneapolis, Minn.) was added to the cells. After the 4 hour treatment with INF-gamma, cells were treated with 100 ng/mL LPS for approximately 24 hours. Control samples included (1) cells receiving no oligomeric compound, stimulated with LPS and (2) cells receiving neither oligomeric compound nor LPS treatment. […]
# [9] = system: let-7i pri-miRNA; assay: let-7i pri-miRNA expression in HeLa cells; format: cell-based, human; details: 100 nM
# Description: Using the transfection methods previously described, HeLa cells were treated with 100 nM of the oligomeric compound ISIS Number 327890 (SEQ ID NO: 308) targeting the let-7i mature miRNA. Total RNA was isolated and expression levels of the let-7i pri-miRNA were analyzed by real-time quantitative RT-PCR using a primer/probe set specific for the let-7i pri-miRNA molecule [forward primer-ISIS 341684 ([…]; herein incorporated as SEQ ID NO.: 777), reverse primer=ISIS 341685 ([…]; herein incorporated as SEQ ID NO.: 778), and probe=ISIS 341686 ([…]; herein incorporated as SEQ ID NO.: 779)].
sequence,measurement,setting,value
GTGGTAATCCCTGGCAATGTGAT [ISIS 327889] (chemistry not given here) [uniform 2′-MOE PS; targets mir-23b],"liver toxicity (plasma transaminase levels, weekly)",[1],did not appear to cause liver toxicity
same,decrease in in vivo expression levels of the mir-23b miRNA,[2],~64%
same,"expression of the luciferase reporter, pGL3-mir-23b sensor",[3],de-repressed the expression of the luciferase reporter
same,"expression levels of markers of adipocyte differentiation (TG, leptin, aP2, HSL, Glut4, PPARγ)",[4],significantly reduce the expression levels of 5 of 6 markers of adipocyte differentiation; also recorded: reduce the expression of several hallmark genes of adipocyte differentiation
"CTGTTCCTGCTGAACTGAGCCA (anti-miR; chemistry not fully specified) [ISIS 327945, uniform 2′-MOE PS; targets mir-24-2]",increase in expression levels of the mir-24-2 pri-miRNA molecule,[5],approximately 35 fold
"CCACATTGAGTTTCTTTAAG (e[5mC]*e[5mC]*eA*e[5mC]*eA*dT*dT*dG*dA*dG*dT*dT*dT*d[5mC]*dT*eT*eT*eA*eA*eG) [ISIS 229927, 5-10-5 2′-MOE gapmer PS targeting mouse TLR4 mRNA, positive control, reference compound]",expression of TLR4,[6],reduced the expression of TLR4 in a dose-dependent manner
same,IL-12 mRNA expression,[7],dose-dependent reduction in IL-12
same,IL-6 expression,[8],some reduction in IL-6 expression
"AGCACAAACTACTACCTCA (chemistry not fully specified) [ISIS 327890, uniform 2′-MOE PS; targets let-7i]",increase in expression levels of the let-7i pri-miRNA molecule,[9],approximately 4 fold
